{
  "source": "patent US20250250299A1",
  "about": "“MACROCYCLIC IMMUNOMODULATORS” (Bristol-Myers Squibb Company, priority 2022, published 2025)",
  "biological_target": "T1, human PD-1 (Jurkat-PD-1 cells; binding of PE-labeled human PD-L1-Ig) (Homo sapiens, UniProt Q15116)",
  "T1 construct": "expressed in transfected cells; host or cells: Jurkat (Jurkat-PD-1 / Jurkat-hPD-1)",
  "T1 sequence (Q15116 25-288)": "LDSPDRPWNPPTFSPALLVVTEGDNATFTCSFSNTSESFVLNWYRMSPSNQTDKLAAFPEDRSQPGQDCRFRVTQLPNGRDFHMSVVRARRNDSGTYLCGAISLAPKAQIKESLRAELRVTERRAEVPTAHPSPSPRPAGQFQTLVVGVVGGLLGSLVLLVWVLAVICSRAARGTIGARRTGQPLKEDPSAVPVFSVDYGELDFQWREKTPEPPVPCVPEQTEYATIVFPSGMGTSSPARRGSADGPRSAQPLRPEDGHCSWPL",
  "experiment": "Jurkat-PD-1 Cell Binding High-Content Screening Assay",
  "key": {"[1]": {"conditions": "Jurkat cell line over-expressing human PD-1, compound 2 h at 37° C., then PE-labeled PD-L1-Ig 20 nM final, 1 hour, read-out: Jurkat hPD1 PDL1 IC50"}},
  "note": "Like-named read-outs stand apart in the source and are kept apart here. Where a SMILES comes first, the peptide text is derived from it. Bridges are numbered along the chain shown (N, C = ends). [ ]: non-standard residue; d: D form. The star is where a group is joined. X1 = O=C(O)CCCCCCCCCCCCCCCCC(=O)N[C@@H](CCC(=O)NCCOCCOCCOCCOCCOCCOCCOCCOCCOCCOCCOCCn1cc(C*)nn1)C(=O)O; Phe(4-COOH) = N[C@@H](Cc1ccc(C(=O)O)cc1)C(=O)O; Phe(4-CH2NH2) = NCc1ccc(C[C@H](N)C(=O)O)cc1; Bip = N[C@@H](Cc1ccc(-c2ccccc2)cc1)C(=O)O; Phe(3-Me) = Cc1cccc(C[C@H](N)C(=O)O)c1; C12 diacid = O=C(O)CCCCCCCCCCC(=O)*; Cha = N[C@@H](CC1CCCCC1)C(=O)O; Carboxymethyl = O=C(O)C*; NMeA = CN[C@@H](C)C(=O)O; Nle = CCCC[C@H](N)C(=O)O; Orn = NCCC[C@H](N)C(=O)O; Dab = NCC[C@H](N)C(=O)O; Nva = CCC[C@H](N)C(=O)O; Abu = CC[C@H](N)C(=O)O",
  "data": [
    {"smiles": "CCC[C@@H]1NC(=O)CSC[C@@H](C(=O)N[C@@H](CCN)C(N)=O)NC(=O)[C@H](CCC(=O)O)NC(=O)[C@H](C(C)C)NC(=O)[C@H](CC2CCCCC2)NC(=O)[C@H](CCN)NC(=O)[C@@H](CC(C)C)NC(=O)[C@H](CCCN)NC(=O)[C@H](Cc2ccc(C(=O)O)cc2)NC(=O)[C@H](Cc2ccc(-c3ccccc3)cc2)NC(=O)[C@H](Cc2ccc(OCc3cn(CCOCCOCCOCCOCCOCCOCCOCCOCCOCCOCCOCCNC(=O)CC[C@H](NC(=O)CCCCCCCCCCCCCCCCC(=O)O)C(=O)O)nn3)cc2)NC(=O)[C@H](Cc2cccc(C)c2)NC(=O)[C@H](CC(=O)O)NC(=O)[C@H](Cc2ccc(C(=O)O)cc2)NC1=O", "note": "[Compound 1022] ({CH2CO}-[Nva][Phe(4-COOH)]D[Phe(3-Me)]Y(X1)[Bip][Phe(4-COOH)][Orn][dL][Dab][Cha]VEC[Dab]-NH2; thioether N-14)", "values": [
      {"measurement": "IC50", "setting": "[1]", "result": 0.054, "unit": "µM"}
    ]},
    {"smiles": "CC(C)C[C@H]1NC(=O)[C@H](C)N(C)C(=O)[C@H](C(C)C)NC(=O)[C@H](Cc2ccc(-c3ccccc3)cc2)NC(=O)[C@H](C(C)C)NC(=O)[C@H](Cc2c[nH]c3ccccc23)NC(=O)[C@H](CC(=O)O)NC(=O)[C@H](Cc2ccc(CNC(=O)CCCCCCCCCCC(=O)O)cc2)NC(=O)[C@H](Cc2ccc(OCC(=O)O)cc2)NC(=O)CSC[C@@H](C(N)=O)NC(=O)[C@H](CO)NC(=O)[C@H](C(C)C)NC(=O)[C@H](CC2CCCCC2)NC(=O)[C@H](CC(N)=O)NC1=O", "note": "[Compound 1038] ({CH2CO}-Y(Carboxymethyl)[Phe(4-CH2NH2)](C12 diacid)DWV[Bip]V[NMeA][dL]N[Cha]VSC-NH2; thioether N-14)", "values": [
      {"measurement": "IC50", "setting": "[1]", "result": 0.18, "unit": "µM"}
    ]},
    {"smiles": "CCCC[C@@H]1NC(=O)CSC[C@@H](C(=O)N[C@@H](CCN)C(N)=O)NC(=O)[C@H](CCC(=O)O)NC(=O)[C@H](C(C)C)NC(=O)[C@H](CC2CCCCC2)NC(=O)[C@H](CCN)NC(=O)[C@@H](CC(C)C)NC(=O)[C@H](CCCN)NC(=O)[C@H](Cc2ccc(OCc3cn(CCOCCOCCOCCOCCOCCOCCOCCOCCOCCOCCOCCNC(=O)CC[C@H](NC(=O)CCCCCCCCCCCCCCCCC(=O)O)C(=O)O)nn3)cc2)NC(=O)[C@H](Cc2ccc(-c3ccccc3)cc2)NC(=O)[C@H](Cc2ccc(C(=O)O)cc2)NC(=O)[C@H](Cc2cccc(C)c2)NC(=O)[C@H](CC(=O)O)NC(=O)[C@H](Cc2ccc(C(=O)O)cc2)NC1=O", "note": "[Compound 1028] ({CH2CO}-[Nle][Phe(4-COOH)]D[Phe(3-Me)][Phe(4-COOH)][Bip]Y(X1)[Orn][dL][Dab][Cha]VEC[Dab]-NH2; thioether N-14)", "values": [
      {"measurement": "IC50", "result": 0.43, "unit": "µM"}
    ]},
    {"smiles": "Cc1cccc(C[C@@H]2NC(=O)[C@H](CC(=O)O)NC(=O)[C@H](Cc3ccc(OCC(=O)O)cc3)NC(=O)[C@H](CCCNC(=N)N)NC(=O)CSC[C@@H](C(=O)N[C@@H](CCN)C(N)=O)NC(=O)[C@H](CCC(=O)O)NC(=O)[C@H](C(C)C)NC(=O)[C@H](CC3CCCCC3)NC(=O)[C@H](CCN)NC(=O)[C@@H](CC(C)C)NC(=O)[C@H](CCCN)NC(=O)[C@H](Cc3ccc(OCC(=O)O)cc3)NC(=O)[C@H](Cc3ccc(-c4ccccc4)cc3)NC(=O)[C@H](Cc3ccc(OCc4cn(CCOCCOCCOCCOCCOCCOCCOCCOCCOCCOCCOCCNC(=O)CC[C@H](NC(=O)CCCCCCCCCCCCCCCCC(=O)O)C(=O)O)nn4)cc3)NC2=O)c1", "note": "[Compound 1005] ({CH2CO}-RY(Carboxymethyl)D[Phe(3-Me)]Y(X1)[Bip]Y(Carboxymethyl)[Orn][dL][Dab][Cha]VEC[Dab]-NH2; thioether N-14)", "values": [
      {"measurement": "IC50", "setting": "[1]", "result": 0.039, "unit": "µM"}
    ]},
    {"smiles": "Cc1cccc(C[C@@H]2NC(=O)[C@H](CC(=O)O)NC(=O)[C@H](Cc3ccc(OCc4cn(CCOCCOCCOCCOCCOCCOCCOCCOCCOCCOCCOCCNC(=O)CC[C@H](NC(=O)CCCCCCCCCCCCCCCCC(=O)O)C(=O)O)nn4)cc3)NC(=O)[C@H](CCCNC(=N)N)NC(=O)CSC[C@@H](C(=O)N[C@@H](CCN)C(N)=O)NC(=O)[C@H](CCC(=O)O)NC(=O)[C@H](C(C)C)NC(=O)[C@H](CC3CCCCC3)NC(=O)[C@H](CCN)NC(=O)[C@@H](CC(C)C)NC(=O)[C@H](CCCN)NC(=O)[C@H](Cc3ccc(OCC(=O)O)cc3)NC(=O)[C@H](Cc3ccc(-c4ccccc4)cc3)NC(=O)[C@H](Cc3ccc(OCC(=O)O)cc3)NC2=O)c1", "note": "[Compound 1009] ({CH2CO}-RY(X1)D[Phe(3-Me)]Y(Carboxymethyl)[Bip]Y(Carboxymethyl)[Orn][dL][Dab][Cha]VEC[Dab]-NH2; thioether N-14)", "values": [
      {"measurement": "IC50", "setting": "[1]", "result": 0.72, "unit": "µM"}
    ]},
    {"smiles": "CC[C@@H]1NC(=O)CSC[C@@H](C(=O)N[C@@H](CCN)C(N)=O)NC(=O)[C@H](CCC(=O)O)NC(=O)[C@H](C(C)C)NC(=O)[C@H](CC2CCCCC2)NC(=O)[C@H](CCN)NC(=O)[C@@H](CC(C)C)NC(=O)[C@H](CCCN)NC(=O)[C@H](Cc2ccc(C(=O)O)cc2)NC(=O)[C@H](Cc2ccc(-c3ccccc3)cc2)NC(=O)[C@H](Cc2ccc(OCc3cn(CCOCCOCCOCCOCCOCCOCCOCCOCCOCCOCCOCCNC(=O)CC[C@H](NC(=O)CCCCCCCCCCCCCCCCC(=O)O)C(=O)O)nn3)cc2)NC(=O)[C@H](Cc2cccc(C)c2)NC(=O)[C@H](CC(=O)O)NC(=O)[C@H](Cc2ccc(C(=O)O)cc2)NC1=O", "note": "[Compound 1021] ({CH2CO}-[Abu][Phe(4-COOH)]D[Phe(3-Me)]Y(X1)[Bip][Phe(4-COOH)][Orn][dL][Dab][Cha]VEC[Dab]-NH2; thioether N-14)", "values": [
      {"measurement": "IC50", "setting": "[1]", "result": 0.095, "unit": "µM"}
    ]},
    {"smiles": "Cc1cccc(C[C@@H]2NC(=O)[C@H](CC(=O)O)NC(=O)[C@H](Cc3ccc(OCC(=O)O)cc3)NC(=O)[C@H](Cc3c[nH]cn3)NC(=O)CSC[C@@H](C(=O)N[C@@H](CCN)C(N)=O)NC(=O)[C@H](CCC(=O)O)NC(=O)[C@H](C(C)C)NC(=O)[C@H](CC3CCCCC3)NC(=O)[C@H](CCN)NC(=O)[C@@H](CC(C)C)NC(=O)[C@H](CCCN)NC(=O)[C@H](Cc3ccc(OCC(=O)O)cc3)NC(=O)[C@H](Cc3ccc(-c4ccccc4)cc3)NC(=O)[C@H](Cc3ccc(OCc4cn(CCOCCOCCOCCOCCOCCOCCOCCOCCOCCOCCOCCNC(=O)CC[C@H](NC(=O)CCCCCCCCCCCCCCCCC(=O)O)C(=O)O)nn4)cc3)NC2=O)c1", "note": "[Compound 1006] ({CH2CO}-HY(Carboxymethyl)D[Phe(3-Me)]Y(X1)[Bip]Y(Carboxymethyl)[Orn][dL][Dab][Cha]VEC[Dab]-NH2; thioether N-14)", "values": [
      {"measurement": "IC50", "setting": "[1]", "result": 0.055, "unit": "µM"}
    ]},
    {"smiles": "CCCC[C@@H]1NC(=O)CSC[C@@H](C(=O)N[C@@H](CCN)C(N)=O)NC(=O)[C@H](CCC(=O)O)NC(=O)[C@H](C(C)C)NC(=O)[C@H](CC2CCCCC2)NC(=O)[C@H](CCN)NC(=O)[C@@H](CC(C)C)NC(=O)[C@H](CCCN)NC(=O)[C@H](Cc2ccc(C(=O)O)cc2)NC(=O)[C@H](Cc2ccc(-c3ccccc3)cc2)NC(=O)[C@H](Cc2ccc(OCc3cn(CCOCCOCCOCCOCCOCCOCCOCCOCCOCCOCCOCCNC(=O)CC[C@H](NC(=O)CCCCCCCCCCCCCCCCC(=O)O)C(=O)O)nn3)cc2)NC(=O)[C@H](Cc2cccc(C)c2)NC(=O)[C@H](CC(=O)O)NC(=O)[C@H](Cc2ccc(C(=O)O)cc2)NC1=O", "note": "[Compound 1020] ({CH2CO}-[Nle][Phe(4-COOH)]D[Phe(3-Me)]Y(X1)[Bip][Phe(4-COOH)][Orn][dL][Dab][Cha]VEC[Dab]-NH2; thioether N-14)", "values": [
      {"measurement": "IC50", "setting": "[1]", "result": 0.096, "unit": "µM"}
    ]},
    {"smiles": "CCCC[C@@H]1NC(=O)CSC[C@@H](C(=O)N[C@@H](CCN)C(N)=O)NC(=O)[C@H](CCC(=O)O)NC(=O)[C@H](C(C)C)NC(=O)[C@H](CC2CCCCC2)NC(=O)[C@H](CCN)NC(=O)[C@@H](CC(C)C)NC(=O)[C@H](CCCN)NC(=O)[C@H](Cc2ccc(OCc3cn(CCOCCOCCOCCOCCOCCOCCOCCOCCOCCOCCOCCNC(=O)CC[C@H](NC(=O)CCCCCCCCCCCCCCCCC(=O)O)C(=O)O)nn3)cc2)NC(=O)[C@H](Cc2ccc(-c3ccccc3)cc2)NC(=O)[C@H](Cc2ccc(OCC(=O)O)cc2)NC(=O)[C@H](Cc2cccc(C)c2)NC(=O)[C@H](CC(=O)O)NC(=O)[C@H](Cc2ccc(OCC(=O)O)cc2)NC1=O", "note": "[Compound 1024] ({CH2CO}-[Nle]Y(Carboxymethyl)D[Phe(3-Me)]Y(Carboxymethyl)[Bip]Y(X1)[Orn][dL][Dab][Cha]VEC[Dab]-NH2; thioether N-14)", "values": [
      {"measurement": "IC50", "setting": "[1]", "result": 0.4, "unit": "µM"}
    ]},
    {"smiles": "Cc1cccc(C[C@@H]2NC(=O)[C@H](CC(=O)O)NC(=O)[C@H](Cc3ccc(OCC(=O)O)cc3)NC(=O)[C@H](CCCNC(=N)N)NC(=O)CSC[C@@H](C(N)=O)NC(=O)[C@H]([C@@H](C)O)NC(=O)[C@H](C(C)C)NC(=O)[C@H](CC3CCCCC3)NC(=O)[C@H](CCN)NC(=O)[C@@H](CC(C)C)NC(=O)[C@H](C)N(C)C(=O)[C@H](CCCNC(=O)CCCCCCCCCCC(=O)O)NC(=O)[C@H](Cc3ccc(-c4ccccc4)cc3)NC(=O)[C@H](Cc3ccc(O)cc3)NC2=O)c1", "note": "[Compound 1036] ({CH2CO}-RY(Carboxymethyl)D[Phe(3-Me)]Y[Bip][Orn](C12 diacid)[NMeA][dL][Dab][Cha]VTC-NH2; thioether N-14)", "values": [
      {"measurement": "IC50", "setting": "[1]", "result": 0.13, "unit": "µM"}
    ]},
    {"smiles": "Cc1cccc(C[C@@H]2NC(=O)[C@H](CC(=O)O)NC(=O)[C@H](Cc3ccc(OCC(=O)O)cc3)NC(=O)[C@H](CCCNC(=N)N)NC(=O)CSC[C@@H](C(=O)N[C@@H](CCN)C(N)=O)NC(=O)[C@H](CCC(=O)O)NC(=O)[C@H](C(C)C)NC(=O)[C@H](CC3CCCCC3)NC(=O)[C@H](CCN)NC(=O)[C@@H](CC(C)C)NC(=O)[C@H](CCCN)NC(=O)[C@H](Cc3ccc(OCc4cn(CCOCCOCCOCCOCCOCCOCCOCCOCCOCCOCCOCCNC(=O)CC[C@H](NC(=O)CCCCCCCCCCCCCCCCC(=O)O)C(=O)O)nn4)cc3)NC(=O)[C@H](Cc3ccc(-c4ccccc4)cc3)NC(=O)[C@H](Cc3ccc(OCC(=O)O)cc3)NC2=O)c1", "note": "[Compound 1002] ({CH2CO}-RY(Carboxymethyl)D[Phe(3-Me)]Y(Carboxymethyl)[Bip]Y(X1)[Orn][dL][Dab][Cha]VEC[Dab]-NH2; thioether N-14)", "values": [
      {"measurement": "IC50", "setting": "[1]", "result": 0.14, "unit": "µM"}
    ]}
  ]
}
